Results published in patent publication US8652785B2, “Method of screening a modulator of endothelial NO synthase comprising the use of heme binding protein 1” (Sanofi, priority 2008, dated 2014).

What was measured:
[1] = system: eNOS promoter; test: eNOS-transcription test after siRNA transfection of EA.csr03 cells; assay type: cell-based, human
Protocol: For liposomal transfection of siRNA in endothelial cells, EA.hy926 or EA.csr03 cells were sown with a density of 50 000 cells per well in a volume of 100 μl growth medium in 96-well plates. After incubation for 24 h in an incubator, the cells were washed with sterile DPBS and were covered in each case with 100 μl/well of serum-free and antibiotic-free special medium Opti-MEM® I. Then the siRNAs (see below) used were preincubated with Lipofectamine™ 2000 in accordance with the manufacturer's instructions and finally 50 μl/well of the transfection mixture was added to the cells. Unless stated otherwise, the siRNAs were used at final concentrations of 100 nM. Per well, after previous optimization, 0.8 μl of Lipofectamine™ 2000 was used for transfection of the EA.hy926 cells, and 0.5 μl for the EA.csr03 cells. After the cells had been incubated in an incubator for 6 hours, the transfection medium was replaced with normal growth medium and the next experimental steps were carried out in the time frame of 24-72 hours after transfection. Primary HUVECs were sown at 100 000 cells per well in Collagen I-coated 6-well plates and were cultivated in normal growth medium up to 60-70% confluence. Prior to transfection, the cells were washed with sterile DPBS and covered in each case with 800 μl/well of serum-free and antibiotic-free special medium Opti-MEM® I. 6 μl Lipofectin® and siRNA at a final concentration of 100 nM were used per well. […]
The survey of the efficiencies of different siRNAs to the target proteins were tested. The respective residual mRNA was determined by quantitative RT-PCR, 24 hours after transfection of human endothelial cells (EA.hy926/EA.csr03). […] After cell lysis, the luciferase activity and the total cellular protein content were determined.
For transcription test for eNOS promoter activation, 20 000 cells per well of the reporter cell line EA.csr03 were sown in a white 96-well cell culture plate. […] The light units released were measured in the Genios microplate reader from Tecan Deutschland (Crailsheim, Germany). […]

[2] = system: HEBP1_predicted mRNA; test: HEBP1_predicted expression in cardiac tissue of rats with chronic heart failure after myocardial infarction; assay type: in vivo; conditions: 10 mg/kg/day for 9 weeks, versus placebo, mRNA relative to GAPDH
Protocol: Rats were divided in three groups. One group was sham-operated (group 1), whereas in groups 2 and 3 chronic heart failure was induced by myocardial infarction. Only, the latter group was treated with AVE3085 (10 mg/(kg day)) for 9 weeks. Thereafter, mRNA expression (HEBP1 in comparison to GAPDH) was determined in heart tissue. Means±SD of 7 experiments are shown, * p<0.05 vs. sham operated.
In another context, an animal study was conducted, in which rats developed chronic heart failure after an induced myocardial infarction. From available RNA samples from cardiac tissue it was possible to determine the expression of HEBP1_predicted at the mRNA level. […]
Isolation of RNA from the cell types used was carried out using the RNeasy® mini-isolation method. […] The concentration and purity of the prepared RNA were determined using a NanoDrop® ND-1000 spectrophotometer (NanoDrop Technologies Inc., Wilmington, USA). In this, from a total volume of 2 μl, the absorption of the samples was measured at a wavelength of λ=260 nm (A260) for nucleic acids. Conversion of the measured absorption to the concentration of the RNA solution was carried out by means of the extinction coefficient of 40 ng×cm^−1×μl^−1 on the basis of the Lambert-Beer law. […] The RNA obtained was then diluted in the ratio 1:5 and either used immediately in a quantitative RT-PCR or stored at −80° C. for future use. […]

[3] = system: eNOS promoter; test: eNOS-transcription test (eNOS-promoter luciferase reporter cell line EA.csr03); assay type: cell-based; conditions: Homo sapiens; EA.csr03 cells, nonlinear regression; read-out: EC50 in the eNOS-transcription test
Protocol: The EA.csr03 cells are cells of a stable eNOS-promoter luciferase cell line. It was obtained by transfection of EA.hy926 cells with a firefly luciferase reporter construct, with a 3.5 kb fragment of the eNOS-promoter added. Cultivation of these cells was carried out with IMDM with GlutaMAX™ I supplemented with 100 U/ml penicillin, 100 μg/ml streptomycin, 10% FCS and 0.4 mg/ml geneticin as selection antibiotic. The EA.hy926 cells are a stable human cell line, which was obtained by fusion of HUVEC with the human […] cell line A549. This cell line is characterized by expression of specific endothelial cell markers, e.g. the “van-Willebrand factor”. The cells used are an original culture of Cora Jean Edgell of passage 32. The cells were cultivated in IMDM with GlutaMAX™ I supplemented with 100 U/ml penicillin, 100 μg/ml streptomycin, HAT Hybri-Max™ medium additive (hypoxanthine, aminopterin and thymidine) and Biotect protective medium.
For transcription test for eNOS promoter activation, 20 000 cells per well of the reporter cell line EA.csr03 were sown in a white 96-well cell culture plate. After 24 hours, various dilutions of the substance in cell culture medium were prepared starting from DMSO stock solutions and were preincubated for 10 min at 37° C. on a water bath. Then these incubation media (100 μl/well) were added to the cells. After incubation for 18 hours, the cells were washed twice with DPBS (100 μl/well) and luciferase lysis buffer (50 μl/well) was added. After 10 min, the solubilized luciferase-substrate luciferin (100 μl/well) was added to the cell lysates. During the luciferase-catalyzed oxidation of luciferin to oxyluciferin there is release of chemiluminescence. […] The light units released were measured in the Genios microplate reader from Tecan Deutschland (Crailsheim, Germany).

EC50 [3]: 400 nM
Structure (SMILES): O=C(NC1Cc2ccccc2C1)c1ccc2c(c1)OC(F)(F)O2 [AVE3085]
induction of the eNOS promoter versus DMSO-control, HEBP1 switched off using siHEBP1 25 ([1]; AVE3085 5 μM, 18 h, siHEBP1 25): 1.6 factor | induction of the eNOS promoter versus DMSO-control, siLV2-treated control cells ([1]; AVE3085 5 μM, 18 h, siLV2-control): 2.4 factor | reduction of eNOS-promoter activation by AVE3085 after switching-off of HEBP1 by siRNA versus siLV2-control ([1]; HEBP1 siRNA): 64% | influence of treatment on expression of HEBP1_predicted in heart [2]: did not show any influence at all
